# Marks after values point to notes of the source that are not given here.
# Key:
# Type in all cases: in vivo
# [1] = tested on: New Zealand white rabbits; experiment: Apparent digestibility of nutrients, total collection method; conditions: feces collected 3 d from day 14
# Excerpt: (§1) The single-factor completely randomized test design is adopted. 36 45-day-old healthy New Zealand white rabbits (male) with the average weight of (1.05±0.04) kg are selected and randomly divided into 3 groups, and each group has 12 replicates with 1 rabbit per replicate. A control group is fed with a basal diet, an L-DNJ group is fed with the basal diet+0.14 g/kg DNJ, and an H-DNJ group is fed with the basal diet+0.28 g/kg DNJ. The diet is uniformly mixed to be prepared into cylindrical particles with the diameter of 6 mm and the length of 1 cm. The preliminary trial period is 14 d, and the trial period is 28 d.
# On the 14th day of the test, 8 experimental rabbits with similar weight are randomly selected from each group and transferred to metabolism cages for digestion and metabolism tests. The digestion and metabolism tests are conducted by the total collection method. All fecal samples of the experimental rabbits are collected for 3 consecutive days, and the contents of nutrients in the diet and fecal samples are measured according to the method in the book written by Zhang Liying. The calculation formula is: apparent digestibility of a nutrient (%)=(content of the nutrient in diet−content of the nutrient in feces)/content of the nutrient in diet×100.
# [2] = tested on: New Zealand white rabbits; experiment: Antioxidant indexes of rabbit meat (T-AOC, SOD, GSH-Px, MDA kits); conditions: 28 d, muscle homogenate
# Excerpt: as §1
# About 5 g of muscular tissue is rinsed in 0-4° C. precooled normal saline to remove blood, dried with filter paper, and then weighed. The muscle tissue and 0-4° C. precooled homogenate buffer are thoroughly mixed and homogenized in an ice water bath at a […] to prepare muscle tissue homogenate with the mass concentration of 10%. The homogenate buffer contains 0.01 mol/L sucrose, 0.14 mol/L NaCl, 0.01 mol/L Tris-HCl and 0.0001 mol/L Na2EDTA, with the pH value of 7.4. The total protein content and the malondialdehyde (MDA) content of the tissue suspension is detected with a kit by a colorimetric method. Before the activities of total antioxidant capacity (T-AOC) enzyme, superoxide dismutase (SOD) and glutathione peroxidase (GSH-Px) are measured, the homogenate suspension is centrifuged at 3000 r/min for 15 min, the superneant is taken, and the activities of the enzymes are measured with relevant kits. All the kits are from Nanjing Jiancheng Bioengineering Institute, and the operation method is shown in the instructions of kits.
# [3] = tested on: New Zealand white rabbits; experiment: Meat quality of rabbit longissimus dorsi (pH, meat color, drip loss, shear force) after DNJ-supplemented diet; conditions: 28 d; for Meat color Brightness L* / Meat color Redness a* / Meat color Yellowness b* / pH45min / pH24 h / pH24 h decreased: longissimus dorsi; for Drip loss: meat hung at 4° C. 24 h
# Excerpt: as §1
# Before the test, rabbit houses and cages are cleaned and disinfected, rabbits are immunized according to routine procedures, and the rabbit houses are naturally ventilated and illuminated. Each experimental rabbit is raised in a single cage and fed with a diet and water twice a day at fixed time (8:00 am and 17:00 pm), and is free to eat and drink.
# The rabbits are deprived of food (but not water) on the night of the end of the experiment, and after weighing in the next morning, 8 rabbits with similar weight are selected from each group and slaughtered. The longissimus dorsi muscles of the rabbits are collected, the pH values of the front, middle and back parts of the longissimus dorsi muscle are measured with a pH meter (Bante221, Shanghai Bante Instrument Co., Ltd.) having the function of automatic temperature compensation and then measured again after standing at room temperature for 24 h, and the pH decreased values of the muscle within 24 h are calculated. The pH value is the average value of the three readings. The meat color (L*, α*, b*) is measured with a TC-PIIG automatic color difference meter (Beijing Aoyike Photoelectric Instrument Co., Ltd.) on the muscle surface. The detection light source is D65 according to CIE laboratory standards, and the measurement area is 8 mm in diameter. The average value is obtained by making three measurements at each detection point.
# About 20 g of meat sample is weighed (demoted as M1), hung with a thin thread, and covered with a plastic bag with the mouth sealed, enough space is left inside to accommodate oozy water drops, and the meat sample is hung in a 4° C. refrigerator for 24 h. After being taken out, the meat sample is weighed (denoted as M2) after the surface moisture is absorbed with absorbent paper. 3 parallel samples are measured for each rabbit, and the results are averaged. Drip loss=(M1−M2)/M1×100%.
# Another meat sample is trimmed into a 1 cm×1 cm×2.5 cm meat strip, the shear force is measured in the direction perpendicular to the muscle fibers by a TMS-PRO texture analyzer (FTC Corporation, USA) for three times, and the results are averaged.
# [4] = tested on: New Zealand white rabbits; experiment: Growth performance (ADFI, ADG, FCR); conditions: 28 d trial
# Excerpt: as §1
# In the morning of the first day of the trial period and the second day after the trial, the experimental rabbits are weighed once on an empty stomach, and the average daily gain (ADG) of each rabbit is calculated. Leftovers are collected and weighed before feeding, and the average daily feed intake (ADFI) of each rabbit is calculated. The ratio of the average daily feed intake to the average daily gain is the feed conversion rate (FCR). The calculation formula is as follows: • ADG=(final weight−initial weight)/test days; • ADFI=total feed intake/test days; • FCR=ADFFADG.
# [5] = H-DNJ: basal diet+0.28 g/kg DNJ
# [6] = L-DNJ: basal diet+0.14 g/kg DNJ
smiles,measurement,setting,value
"OC[C@H]1NC[C@H](O)[C@@H](O)[C@@H]1O [DNJ, 1-deoxynojirimycin]",Apparent digestibility of Acid detergent fiber (ADF),[1]; [5],14.88%
same,Apparent digestibility of Crude ash,[1]; [5],42.23%
same,Apparent digestibility of Crude fiber (CF),[1]; [5],14.56%
same,Apparent digestibility of Crude protein (CP),[1]; [5],76.25ª %
same,Apparent digestibility of Dry matter (DM),[1]; [5],60.79^b %
same,Apparent digestibility of Ether extract (EE),[1]; [5],78.35^b %
same,Apparent digestibility of Neutral detergent fiber,[1]; [5],20.68%
same,Apparent digestibility of Acid detergent fiber (ADF),[1]; [6],12.34%
same,Apparent digestibility of Crude ash,[1]; [6],43.44%
same,Apparent digestibility of Crude fiber (CF),[1]; [6],13.54%
same,Apparent digestibility of Crude protein (CP),[1]; [6],75.17^ab %
same,Apparent digestibility of Dry matter (DM),[1]; [6],61.35^ab %
same,Apparent digestibility of Ether extract (EE),[1]; [6],79.84^ab %
same,Apparent digestibility of Neutral detergent fiber,[1]; [6],21.02%
same,GSH-Px of rabbit meat,[2]; [5],7.88ª U/mg prot
same,MDA of rabbit meat,[2]; [5],0.45 nmol/mg prot
same,SOD of rabbit meat,[2]; [5],25.91 U/mg prot
same,T-AOC of rabbit meat,[2]; [5],0.82ª U/mg prot
same,GSH-Px of rabbit meat,[2]; [6],6.36^b U/mg prot
same,MDA of rabbit meat,[2]; [6],0.41 nmol/mg prot
same,SOD of rabbit meat,[2]; [6],25.01 U/mg prot
same,T-AOC of rabbit meat,[2]; [6],0.78^ab U/mg prot
same,Shear force,[3]; [5],33.51 N/cm^2
same,Meat color Brightness L*,[3]; [5],55.34^b
same,Meat color Redness a*,[3]; [5],1.71ª
same,Meat color Yellowness b*,[3]; [5],8.35
same,pH45min,[3]; [5],6.77
same,pH24 h,[3]; [5],5.89
same,pH24 h decreased,[3]; [5],0.87
same,Drip loss,[3]; [5],3.17%
same,Shear force,[3]; [6],32.86 N/cm^2
same,Meat color Brightness L*,[3]; [6],55.82^ab
same,Meat color Redness a*,[3]; [6],1.56ª
same,Meat color Yellowness b*,[3]; [6],8.32
same,pH45min,[3]; [6],6.62
same,pH24 h,[3]; [6],5.87
same,pH24 h decreased,[3]; [6],0.76
same,Drip loss,[3]; [6],3.56%
same,Average daily feed intake (ADFI),[4]; [5],140.46
same,Average daily gain (ADG),[4]; [5],32.66 g/day
same,Feed conversion rate (FCR),[4]; [5],0.24 g/g
same,Average daily feed intake (ADFI),[4]; [6],145.33
same,Average daily gain (ADG),[4]; [6],36.18 g/day
same,Feed conversion rate (FCR),[4]; [6],0.25 g/g

# Source: patent US20230329282A1, “Application of 1-Deoxynojirimycin in Feed for Improving Nutritional Value and Sensory Effect of Rabbit Meat Products” (priority 2023, published 2023)
